In publication PMC12632266, “A dual L-glucose/L-galactose catabolic pathway in Luteolibacter species strain LG18” (Journal of Bacteriology, 2025):

Columns and labels:
His6-LguE = tested on: T1, His6-LguE; assay: coupled LDH, NADH oxidation (pyruvate production); format: biochemical, Luteolibacter sp. LG18; details: 100 mM potassium phosphate pH 7.0, 25°C
T1 construct: full-length ORF, N-terminal His6 (pET28a), E. coli BL21 Star (DE3)
Description: coupled LDH, NADH oxidation (pyruvate production) on His6-LguE

His6-LguA (L-GDH) = molecular target: T2, His6-LguA (L-GDH) (Luteolibacter sp. LG18, UniProt Z9K5S2U0J3); assay: NADP+ reduction at […] nm; format: biochemical; details: 10 mM Tris-HCl pH 7.5, 25°C
T2 construct: full-length ORF, N-terminal His6 (pET28a), E. coli BL21 Star (DE3); native N-terminus METRKLGNTGLDVSV
T2 sequence (Z9K5S2U0J3 21-349): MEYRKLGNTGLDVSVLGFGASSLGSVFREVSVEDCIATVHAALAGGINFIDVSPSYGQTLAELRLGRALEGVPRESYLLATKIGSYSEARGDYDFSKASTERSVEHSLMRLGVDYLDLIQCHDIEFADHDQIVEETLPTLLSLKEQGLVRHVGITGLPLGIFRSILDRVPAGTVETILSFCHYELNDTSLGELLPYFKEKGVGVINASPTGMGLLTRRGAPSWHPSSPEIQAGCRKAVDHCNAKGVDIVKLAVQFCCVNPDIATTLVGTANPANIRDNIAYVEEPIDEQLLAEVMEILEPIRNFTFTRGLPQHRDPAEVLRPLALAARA

His6-LguH = tested on: T3, His6-LguH; assay: coupled LguE/GAPDH, NADH formation at […] nm; format: biochemical, Luteolibacter sp. LG18; details: 1 mM MgCl2, 100 mM potassium phosphate pH 7.0, 25°C
T3 construct: full-length ORF, N-terminal His6 (pET28a), E. coli BL21 Star (DE3)

His6-LguD (L-GnDH) = tested on: T4, His6-LguD (L-GnDH); assay: NAD+ reduction at […] nm; format: biochemical, Luteolibacter sp. LG18; details: 10 mM Tris-HCl pH 7.5, 25°C
T4 construct: full-length ORF, N-terminal His6 (pET28a), E. coli BL21 Star (DE3); native N-terminus MKTLVLREPG

Compound: O=C(O)C(=O)C[C@H](O)[C@H](O)COP(=O)(O)O [KDPG]
- Km (His6-LguE): 137 ± 10 µM

Compound: OC[C@@H]1OC(O)[C@@H](O)[C@H](O)[C@@H]1O (stereo partly drawn) [L-galactose]
- Km (His6-LguA (L-GDH); 1 mM NADP+): 91.7 µM

Compound: NC(=O)c1ccc[n+]([C@@H]2O[C@H](COP(=O)(O)OP(=O)(O)OC[C@H]3O[C@@H](n4cnc5c(N)ncnc54)[C@H](OP(=O)(O)O)[C@@H]3O)[C@@H](O)[C@H]2O)c1 [NADP^+]
- Km (His6-LguA (L-GDH); 100 mM L-glucose): 79.3 µM

Compound: O=C(O)C(=O)C[C@H](O)[C@H](O)CO [KDG]
- Km (His6-LguH; 10 mM PPi): 198 ± 12 µM

Compound: O=C(O)[C@@H](O)[C@H](O)[C@@H](O)[C@@H](O)CO [L-gluconate]
- Km (His6-LguD (L-GnDH); 1 mM NAD+): 4300 ± 340 µM

Compound: O=C(O)[C@@H](O)[C@H](O)[C@H](O)[C@@H](O)CO [L-galactonate]
- Km (His6-LguD (L-GnDH); 1 mM NAD+): 2960 ± 230 µM

Compound: Nc1ncnc2c1ncn2[C@@H]1O[C@H](COP(=O)(O)OP(=O)(O)OP(=O)(O)O)[C@@H](O)[C@H]1O [ATP]
- Km (His6-LguH; 5 mM KDG, phosphate donor): 55 ± 47 µM

Compound: NC(=O)c1ccc[n+]([C@@H]2O[C@H](COP(=O)(O)OP(=O)(O)OC[C@H]3O[C@@H](n4cnc5c(N)ncnc54)[C@H](O)[C@@H]3O)[C@@H](O)[C@H]2O)c1 [NAD^+]
- Km (His6-LguD (L-GnDH); 20 mM L-gluconate): 450 ± 30 µM

Compound: OC[C@@H]1OC(O)[C@@H](O)[C@H](O)[C@H]1O (stereo partly drawn) [L-glucose]
- Km (His6-LguA (L-GDH); 1 mM NADP+): 7700 ± 490 µM

Compound: O=P(O)(O)OP(=O)(O)O [PPi]
- Km (His6-LguH; 5 mM KDG, phosphate donor): 306 ± 63 µM
